This note sets out measurements from patent US5296591A, “Trifluoromethylketone derivatives, processes for preparation thereof and use thereof” (Fujisawa Pharmaceutical Co., Ltd., priority 1990, dated 1994).

In test [1] the test system is human sputum elastase-induced lung hemorrhage in hamsters. Briefly: Elastase-induced pulmonary damage (lung hemorrhage) in hamsters. Format: in vivo, hamster. As to conditions: 5 min predose; for Hemorrhage (OD541 nm): BAL hemoglobin 3 h after elastase; for ED50 elastase-induced lung hemorrhage: intratracheal. The method, then:
Hamsters under pentobarbital anesthesia were used. Saline or saline-containing human sputum elastase was instilled intratracheally via a small incision in the ventral neck region using 1-ml syringe with a 27-gauge needle. After 3 hours, animals were sacrificed by CO2 asphyxiation, each animal's trachea was reexposed. The lungs were then laveged using a 2.5-ml aliquot of saline and then withdrawing the saline, yielding a final volume of approximately 1.5 ml bronchoalveolar lavage (BAC) fluid from each animal.
The cells of BAL fluid were collected by centrifugation and were then diluted with distilled water to disrupt, and the hemoglobin contents determined spectrophotometrically at 541 nm.
Test drugs were dissolved in saline or methyl cellulose, and instilled intratracheally in the same manner as used to instill elastase, at 5 minutes before instillation of elastase.

Test [2] concerns the target T1, porcine pancreas elastase (Type IV) (Sus scrofa, UniProt P00772).
T1 construct: purchased Sigma Chemicals Co; host or cells: porcine pancreas (from the enzyme's name)
Kind of test: Protease inhibition assay (in vitro), porcine pancreas elastase. As to conditions: substrate N-succinyl-(Ala)3-p-nitroanilide, enzyme 5 μg/ml final. Format: biochemical. The method, then:
(§1) A buffer used throughout the assay was 0.1M HEPES (4-(2-hydroxyethyl)-1-piperazineethanesulfonic acid) containing 0.5M NaCl, pH 7.5. Twenty-five microliters of 2 mM methoxysuccinyl-(Ala)2 -Pro-Val-p-nitroanilide (100 mM of dimethyl sulfoxide solution were diluted in the buffer) and 50 μl of sample (10 μl of sample in organic solvent was diluted 5-fold in the buffer) were mixed in wells of 96 well-microliter plate. An absorbance of the mixture in wavelength at 415 nm was measured by a microplate reader (Corona Electric Co., Ibaraki, Japan). After the measurement, 25 μl of 6 μg/ml human sputum elastase (HSE) was added and the mixture was allowed to stand for 30 minutes at room temperature. Then, the absorbance at 415 nm was measured. Percent inhibition by drug was determined by 100×(1-"r" inhibitor present/"r" inhibitor absent), where "r" is absorbance after 30 minutes incubation minus absorbance before enzyme addition. Effect of inhibitors against porcine pancreas elastase (Type IV, 5 μg/ml final) was assayed similarly using N-succinyl-(Ala)3 -p-nitroanilide. HSE was obtained from Elastin Products Company Inc., Mo., U.S.A. All other substrates and protease were purchased from Sigma Chemicals Co.

The target in test [3] is T2, human sputum elastase (HSE) (Homo sapiens, UniProt P08246).
T2 construct: HSE was obtained from Elastin Products Company Inc., Mo., U.S.A; purchased Elastin Products Company Inc; host or cells: human sputum (from the enzyme's name)
T2 sequence (P08246 30-267): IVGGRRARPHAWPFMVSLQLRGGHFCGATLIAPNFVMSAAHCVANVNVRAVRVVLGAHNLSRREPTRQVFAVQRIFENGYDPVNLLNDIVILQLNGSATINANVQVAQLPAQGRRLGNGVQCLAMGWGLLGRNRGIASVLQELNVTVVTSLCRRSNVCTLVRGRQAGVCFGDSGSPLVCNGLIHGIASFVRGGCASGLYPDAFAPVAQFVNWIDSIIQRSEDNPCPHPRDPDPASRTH
Briefly: Protease inhibition assay (in vitro), human sputum elastase. Format: biochemical. As to conditions: substrate methoxysuccinyl-(Ala)2-Pro-Val-p-nitroanilide, 30 min, room temperature, pH 7.5. The method, then: as §1

The mark [4] stands for this setting: read-out: IC50 Porcine pancreas elastase.

Read-outs that look alike come from different tables or passages of the source.

T1 sequence (P00772 27-266): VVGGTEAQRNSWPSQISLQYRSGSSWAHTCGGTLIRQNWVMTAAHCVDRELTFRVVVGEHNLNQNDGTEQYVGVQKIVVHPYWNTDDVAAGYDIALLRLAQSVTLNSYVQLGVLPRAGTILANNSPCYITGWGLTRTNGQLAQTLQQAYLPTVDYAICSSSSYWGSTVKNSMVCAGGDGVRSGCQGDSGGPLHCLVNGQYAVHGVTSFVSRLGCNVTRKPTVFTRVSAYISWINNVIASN

A word on the IC50: it is the point on the concentration scale where inhibition reaches its midpoint. With `CC(C)C(NC(=O)[C@@H]1CCCN1C(=O)[C@@H](NC(=O)c1ccc(C(=O)NCC(=O)O)cc1)C(C)C)C(=O)C(F)(F)F` (mixture of isomers) [Example 13, 3(RS)-[[4-(carboxymethylaminocarbonyl)phenylcarbonyl]-L-valyl-L-prolyl]amino-1,1,1-trifluoro-4-methyl-2-oxopentane], the “% inhibition of elastase-induced lung hemorrhage” value (shortened to “% inhibition”) in test [1] (1 μg/site intratracheal) worked out at 21.6%; in test [1] (10 μg/site intratracheal), 74.5%; in test [1] (100 μg/site intratracheal) it was 100.0%. Further, the results for the “Hemorrhage (OD541 nm)” value in test [1] (1 μg/site intratracheal), in test [1] (10 μg/site intratracheal) and in test [1] (100 μg/site intratracheal) were 11.63 ± 1.99 OD541 nm, 4.217 ± 1.02 OD541 nm and 0.6384 ± 0.222 OD541 nm, respectively. Also, the “ED50 elastase-induced lung hemorrhage” value in test [1] was 3.0 μg/site. For the same molecule, the concentration for half-maximal inhibition (IC50) in test [2] (IC50 Porcine pancreas elastase) is 3.3 µM; in test [3], 0.72 µM.

On to `CC(C)C(NC(=O)[C@@H]1CCCN1C(=O)[C@@H](NC(=O)c1ccc(C(=O)NCCCC(=O)O)cc1)C(C)C)C(=O)C(F)(F)F` (mixture of isomers) [Example 20, 3(RS)-[[4-[(3-carboxypropyl)aminocarbonyl]phenylcarbonyl]-L-valyl-L-prolyl]amino-1,1,1-trifluoro-4-methyl-2-oxopentane], for which the results for the “% inhibition” value in test [1] (1 μg/site intratracheal), in test [1] (10 μg/site intratracheal) and in test [1] (100 μg/site intratracheal) were 16.1%, 86.0% and 104.7%, respectively. Further, the “Hemorrhage (OD541 nm)” value in test [1] (1 μg/site intratracheal) is recorded as 10.94 ± 1.35 OD541 nm; in test [1] (10 μg/site intratracheal), 2.522 ± 0.803 OD541 nm; in test [1] (100 μg/site intratracheal), 0.2680 ± 0.050 OD541 nm. For the same molecule, in test [1], the “ED50 elastase-induced lung hemorrhage” value amounted to 2.5 μg/site. In addition, the IC50 in test [2] (setting [4]) amounted to 2.4 µM; in test [3], 0.89 µM.

For `CC(C)C(NC(=O)[C@@H]1CCCN1C(=O)[C@@H](NC(=O)c1ccc(C(=O)NCCN2CCOCC2)cc1)C(C)C)C(=O)C(F)(F)F.Cl` (mixture of isomers) [Example 21, 3(RS)-[[4-[[2-(4-morpholino)ethyl]aminocarbonyl]phenylcarbonyl]-L-valyl-L-prolyl]amino-1,1,1-trifluoro-4-methyl-2-oxopentane hydrochloride], the entries for the “% inhibition” value in test [1] (1 μg/site intratracheal), in test [1] (10 μg/site intratracheal) and in test [1] (100 μg/site intratracheal) were 13.6%, 66.3% and 100.0%, respectively. The “Hemorrhage (OD541 nm)” value in test [1] (1 μg/site intratracheal) was determined as 12.76 ± 1.11 OD541 nm; in test [1] (10 μg/site intratracheal), 5.372 ± 2.06 OD541 nm; in test [1] (100 μg/site intratracheal), 0.6476 ± 0.129 OD541 nm. Further, in test [1], the “ED50 elastase-induced lung hemorrhage” value is recorded as 4.5 μg/site. The half-inhibitory concentration (IC50) in test [2] (setting [4]) stood at 3.7 µM; in test [3], 1.2 µM.

In the case of `CC(C)C(NC(=O)CN(C(=O)[C@@H](NC(=O)c1ccc(C(=O)NCC(=O)O)cc1)C(C)C)C1Cc2ccccc2C1)C(=O)C(F)(F)F` (mixture of isomers) [Example 27, 3(RS)-[[4-(carboxymethylaminocarbonyl)phenylcarbonyl]-L-valyl-N-(2-indanyl)glycyl]-amino-1,1,1-trifluoro-4-methyl-2-oxopentane], the “% inhibition” value in test [1] (1 μg/site intratracheal) came out at 24.8%; in test [1] (10 μg/site intratracheal), 66.9%; in test [1] (100 μg/site intratracheal), 99.8%. For the same molecule, the “Hemorrhage (OD541 nm)” value in test [1] (1 μg/site intratracheal) came to 10.68 ± 1.25 OD541 nm; in test [1] (10 μg/site intratracheal), 4.878 ± 0.917 OD541 nm; in test [1] (100 μg/site intratracheal), 0.3451 ± 0.084 OD541 nm. The “ED50 elastase-induced lung hemorrhage” value in test [1] came to 3.7 μg/site. Also, the IC50 came out at 16 µM in test [2] (setting [4]) and 2.4 µM in test [3].

As to `CC(C)C(NC(=O)CN(C(=O)[C@@H](NC(=O)c1ccc(C(=O)NCCN2CCOCC2)cc1)C(C)C)C1Cc2ccccc2C1)C(=O)C(F)(F)F` (mixture of isomers) [Example 29, 3(RS)-[[4-[[2-(4-morpholino)ethyl]aminocarbonyl]phenylcarbonyl]-L-valyl-N-(2-indanyl)glycyl]amino-1,1,1-trifluoro-4-methyl-2-oxopentane], the “% inhibition” value is on record as 14.9% in test [1] (1 μg/site intratracheal), 43.2% in test [1] (10 μg/site intratracheal) and 69.4% in test [1] (100 μg/site intratracheal). The “Hemorrhage (OD541 nm)” value in test [1] (1 μg/site intratracheal) turned out to be 12.05 ± 1.95 OD541 nm; in test [1] (10 μg/site intratracheal), 8.155 ± 1.76 OD541 nm; in test [1] (100 μg/site intratracheal), 4.545 ± 1.49 OD541 nm. Also, the “ED50 elastase-induced lung hemorrhage” value in test [1] stood at 17.9 μg/site. Besides, the IC50 stood at 19 µM in test [2] (setting [4]) and 2.4 µM in test [3].
